These results are taken from patent US20090227671A1, “Prevention and treatment of atherosclerosis with lithospermate B” (Industry-Academic Cooperation Foundation, priority 2005, published 2009).

Holding throughout (assay type): cell-based, Sprague-Dawley rats
One assay concerns Akt. Nature of the assay: Western blot of Akt phosphorylation in VSMC induced by PDGF-BB. As to conditions: for decrease of Akt phosphorylation: 30 μM LAB, 20 mM NAC, 40 μM LY294002, 1 h, then PDGF-BB 10 min, FIG. 4C. As for the experimental part: (§1) VSMC was washed with PBS and then dissolved in lysis buffer (25 mM Tris HCl, pH 7.4, 25 mM NaCl, 25 mM NaF, 25 mM sodium pyrophosphate, 1 mM sodium vanadate, 2.5 mM EDTA, 2.5 mM EGTA, 0.05% (wt/vol) Triton X-100, 0.5% (wt/vol) SDS, 0.5% (wt/vol) deoxycholate, 0.5% (wt/vol) Nonidet P-40, […], and 1 mM PMSF). The cells were collected and centrifuged at 13,000 rpm for 15 min and the protein concentration of the resulting supernatant was measured by Bradford assay. The proteins were denatured and were subjected to SDS-PAGE and then blotted onto nitrocellulose membranes. The membranes were placed in 5% (w/v) non-fat dry milk in TBS with 0.1% Tween20 (TBS-T) and then placed at room temperature for 3 hrs. The blots were placed at 4° C. along with anti-ERK1/2 or anti-Akt antibodies (Cell signaling Technologh, Berely. Mass., USA) for 16 hrs. The membranes were washed 4 times with TBS-T, added with anti-rabbit IgG antibody conjugated with horseradish peroxidase (1:2,000 diluent) and then placed at room temperature for 1 hr. The immunoreactive bands detected by ECL reagents were developed by Hyperfilm-ECL (Amersham Life Science, Little Chalfont, UK). The bands showing positive responses were quantitated by densitometry and then compared with that of control.
(§2) In FIG. 1B, it is shown that both U0126 (20 μM) and LY294002 (40 μM) inhibited activities of LDH and MTT induced by PDGF-BB. As a way to investigate the signal transduction pathway involved in VSMC proliferation induced by PDGF-BB, an experiment was conducted to examine whether PDGF-BB activates a relatively lower signal transduction pathway such as ERK1/2 and Akt.

The next assay has as its system ERK1/2. Nature of the assay: Western blot of ERK1/2 phosphorylation in VSMC induced by PDGF-BB. The procedure: as §1, §2
Assay [1] relates to vascular smooth muscle cells. Nature of the assay: VSMC proliferation induced by PDGF-BB (LDH and MTT assays). As to conditions: data not shown. An excerpt: Vascular smooth muscle cells ('VSMC' hereinafter) were separated from thoracic aorta of a Sprague-Dawley weighted about 100-150 g by using collagenase digestion method and then cultured them according to the method disclosed in previous studies [[…], et al. Role of p44/p42 MAP kinase in the age-dependent increase in vascular smooth muscle cell proliferation and neointimal formation. Arterioscler Thromb Vasc Biol. Feb. 1 2003; 23(2):204-210.; Hamaguchi A, Kim S, Izumi Y, et al. Contribution of extracellular signal-regulated kinase to angiotensin II-induced transforming growth factor-beta1 expression in vascular smooth muscle cells. Hypertension. July 1999; 34(1):126-131]. […] The VSMC was treated in a culture medium not containing serum for 24 hrs prior to treatment with PDGF-BB, and the reaction according to the presence or absence of PDGF-BB was analyzed after pretreating with LAB or other reagents. […] The cells were then washed twice with PBS, lysed by using 0.5% Triton-X100, and then the activity of lactate dehydronase (LDH) was measured by using CytoTox-ONETM assay kit (Promega, Madison, Wis., USA) with fluorescence at […]. […]

For assay [2], the system named is vascular smooth muscle cells. Nature of the assay: VSMC migration induced by PDGF-BB (modified Boyden chamber). The following applies: PDGF-BB 10 ng/mL as chemoattractant, 16 hrs. The procedure: The migration of VSMC with 8 μm of pores was measured by using modified Boyden chamber method [Brown C, Pan X, Hassid A. Nitric oxide and C-type atrial natriuretic peptide stimulate primary aortic smooth muscle cell migration via a cGMP-dependent mechanism: relationship to microfilament dissociation and altered cell morphology. Circ Res. Apr. 2 1999; 84(6):655-667], which utilizes collagen-coated transwell tissue culture inserts consisting of polycarbonate membrane. 3.0×10^6 cells/mL of the above vascular smooth muscle cells were allowed to float in a culture medium without serum, treated with LAB with various concentrations and then cultured at 37° C. for 30 min. Then, the cells were treated with either 0.5 mL DMEM without serum or 0.5 mL DMEM without serum along with PDGF-BB 10 ng/mL and then placed in the lower part of a chamber. 100 μL of the folating materials of the above cells (final 3.0×10^5 cells/well) was added to the upper part of the chamber and cultured at 37° C. for 16 hrs. The cells were then fixed, dyed with hematoxylin, and filters were dried and developed.
It is known that […] plays an important role in proliferation of VSMC as well as development of atherosclerosis. To investigate whether LAB decreases the migration of VSMC induced by PDGF-BB, an experiment was performed as follows by using the aforementioned modified Boyden chamber method.

In assay [3] the test system is intracellular reactive oxygen species. The assay can be described thus: Intracellular reactive oxygen species in VSMC (DCF fluorescence). As to conditions: PDGF-BB 10 ng/mL vs control. As for the experimental part: The amount of reactive oxygen species in cells was measured as described in the previous report [Hamaguchi A, Kim S, Izumi Y, et al. Contribution of extracellular signal-regulated kinase to angiotensin II-induced transforming growth factor-beta1 expression in vascular smooth muscle cells. Hypertension. July 1999; 34(1):126-131]. VSMC was cultured in a culture medium without serum for 24 hrs to stop cell proliferation and then pretreated with LAB with various concentrations of 1, 5, 10, 20, 30 μM for 1 hr. The cells were treated with either 10 ng/mL of PDGF-BB for 10 min or with 100 μM H2O2 for 1 min and then cultured in the presence of 5-(and-6)-chloromethyl-2′,7′-dichlorohydrofluorescein diacetate(CM-H2DCF-DA: Molecular Probes Inc., Eurogene, Oreg., USA) in the dark room for 10 min and cultured cells and generation of reactive oxygen species were observed by using fluorescent microscope.
First, the amount of intracellular reactive oxygen species generated by PDGF-BB was measured by using peroxide-sensitive fluorophore DCF. As shown in FIG. 3A (B-1), the amount of intracellular reactive oxygen species generated by PDGF-BB evaluated with DCF fluorescence was 2.7 times greater. […] In this experiment, LAB was treated with PDGF-BB for 10 min. When LAB was pretreated, the amount of DCF fluorescence was decreased as compared to when it was treated only with PDGF-BB [FIG. 3A(A)]. […] Further, LAB decreased the activity of hydrogen peroxide, which increases the generation of intracellular reactive oxygen species, in proportion to its concentration (FIG. 3A(C)).

Consider `O=c1cc(N2CCOCC2)oc2c(-c3ccccc3)cccc12` [LY294002, (2-(4-morpholinyl)-8-phenyl)-4H-1-benzopyran-4-one, reference compound], for which, in the assay on Akt, the “decrease of Akt phosphorylation” value is 3.5 folds.

Turning to `CC(=O)N[C@@H](CS)C(=O)O` [NAC, N-acetylcysteine, reference compound], the “decrease of ERK1/2 phosphorylation” value in the assay with ERK1/2 (30 μM LAB, 20 mM NAC, 1 h, then PDGF-BB 10 min, FIG. 5C) amounted to 0.6 fold. The “decrease of Akt phosphorylation” value in the assay on Akt worked out at 3.4 folds.

Regarding `Oc1ccc(-c2nc(-c3ccncc3)c(-c3ccc(F)cc3)[nH]2)cc1` [SB202190, reference compound], the “inhibitory activity against VSMC proliferation induced by PDGF-BB” value in assay [1] is recorded as “no distinct inhibitory activity”.

In the case of “PDGF-BB: platelet-derived growth factor (Sigma-Aldrich), stimulus of VSMC proliferation and migration [reference compound]”, the “increase of VSMC migration” value in assay [2] is on record as “about 60%”. For the same compound, the “increase of ERK1/2 activity” value with ERK1/2 (treated with PDGF-BB 10 ng/mL, FIG. 5A) is listed as 11 folds. Further, the “increase of Akt activity” value in the assay on Akt (treated with PDGF-BB 10 ng/mL, FIG. 4A) is 7 folds. The “amount of intracellular reactive oxygen species (DCF fluorescence), increase” value in assay [3] came out at 2.7 times.
